Source: patent publication US10738097B2, “Interferon-beta analog peptide” (priority 2017, dated 2020)

Assays:
Type in all cases: in vivo, mouse
CD45 positive cells = CD45 positive cells in cerebral cortex of EAE mice; settings: 10 and 20 mg/kg, particularly 20 mg/kg, day 21
Method: (§1) Furthermore, brain inflammatory response after IFNβ analog peptide treatment as the IFNβ analog peptide was evaluated by measuring the number of IL-17 positive cells, CD11b positive cells, and CD45 positive cells. IL-17 is the most important pro-inflammatory cytokine produced by T-helper cells, CD11b is an activated macrophages and microglia marker, and CD45 is a general leukocytes marker.
(§2) After 21 days of EAE induction, mice were euthanized and were transcardially perfused with PBS. Then, the brains were dissected; cerebral cortex was isolated and snap-frozen in liquid nitrogen.

IL-17 positive cells = IL-17 positive cells in cerebral cortex of EAE mice; settings: 10 and 20 mg/kg, particularly 20 mg/kg, day 21
Method: as §1, §2

[1] = test system: matrix metalloproteinase 2 (MMP2); experiment: MMP2 gene expression in brain tissue of EAE mice, quantitative real-time PCR; settings: 20 mg/kg
Method: (§3) In this example, effects of the IFNβ analog peptide as the IFNβ analog peptide on the expression of some related inflammations mediators such as matrix metalloproteinase 2 (MMP2) and matrix metalloproteinase 9 (MMP9) were studied using quantitative real-time polymerase chain reaction (PCR).
(§4) The EAE mice were treated with PBS as the vehicle group, and dosage of the IFNβ analog peptide and IFNβ was 20 mg/kg in IFNβ analog peptide-treated mice and IFNβ-treated mice groups. After that RNA of the cells was extracted and their cDNA was synthesized.

CD11b positive cells = CD11b positive cells in cerebral cortex of EAE mice; settings: 10 and 20 mg/kg, particularly 20 mg/kg, day 21
Method: as §1, §2

[2] = test system: tumor necrosis factor-alpha (TNFα); experiment: Plasma TNFα of EAE mice, ELISA; settings: 21 days after EAE induction
Method: (§5) Moreover, after 21 days of EAE induction, mice were euthanized and their blood was obtained via cardiac puncture and plasma was prepared. Expression levels of tumor necrosis factor-alpha (TNFα) and interleukin 1β (IL1β) as circulating inflammatory biomarkers were measured in the plasma using quantitative enzyme-linked immunosorbent assay (ELISA) kits.

interleukin 1β (IL1β) = experiment: Plasma IL1β of EAE mice, ELISA; settings: 21 days after EAE induction
Method: as §5

EAE-induced C57BL/6 mice = experiment: Clinical score in MOG-induced experimental autoimmune encephalomyelitis (EAE); settings: IFNβ analog peptide = SEQ ID No. 1
Method: In this example, therapeutic effects of the IFNβ analog peptide with SEQ ID No. 1 on the development of progressive experimental autoimmune encephalomyelitis (EAE) were studied. At first, EAE was induced in 8 weeks old C57BL/6 male mice with a weight between 20 grams and 25 grams. In order to induce EAE, mice were anesthetized with isoflurane and subcutaneously injected with 100 μl of MOG (myelin oligodendrocyte glycoprotein) with a concentration of about 2.5 g/l suspended in 100 μl complete Freund's adjuvant (CFA) into the hind flank. Mice were also intraperitoneally injected with 400 ng of pertussis toxin in 200 μl of phosphate buffered saline (PBS). A second, identical injection of pertussis toxin was given two days following the first immunization. Injections were distributed over four spots, for example about 100 μl per site across the flank areas. […]
After that, in order to conduct clinical evaluation, mice of the experimental groups were blinded scored as follows: score 0 for no overt signs of disease, score 1 for limp tail, score 2 for limp tail and hind limb weakness, score 3 for partial hind limb paralysis of one side (hemiparesis) or both sides (paraparesis), score 4 for complete hind limb paralysis of one side (hemiplegia) or both sides (paraplegia), score 5 for moribund state. The day of immunization was considered as EAE day 0 and clinical behavior of mice was scored daily. […]

[3] = test system: matrix metalloproteinase 9 (MMP9); experiment: MMP9 gene expression in brain tissue of EAE mice, quantitative real-time PCR; settings: 20 mg/kg
Method: as §3, §4

[4] = P<0.05, SEQ ID of peptide not stated in Example 6

## IFNβ: Interferon-beta, first-line treatment for relapsing-remitting multiple sclerosis; comparator
CD45 positive cells
  Percentage of CD45 positive cells in the cerebral cortex: considerably decreased
IL-17 positive cells
  Percentage of IL-17 positive cells in the cerebral cortex: considerably decreased
[1]
  Reduction of MMP2, IFNβ versus IFNβ analog peptide: reduction of these inflammation mediators was more in IFNβ-treated mice
[1]; [4]
  MMP2 gene expression fold change in the brain tissue compared to the vehicle group: significant decrease
CD11b positive cells
  Percentage of CD11b positive cells in the cerebral cortex: considerably decreased
[2]
  Reduction of TNFα, IFNβ versus IFNβ analog peptide: reduction of these inflammation mediators was more in IFNβ-treated mice
[2]; P-value<0.05
  Plasma level of TNFα compared to the vehicle group: significant decrease
Interleukin 1β (IL1β)
  Reduction of IL1β, IFNβ versus IFNβ analog peptide: reduction of these inflammation mediators was more in IFNβ-treated mice
Interleukin 1β (IL1β); P-value<0.05
  Plasma level of IL1β compared to the vehicle group: significant decrease
EAE-induced C57BL/6 mice; 20 mg/kg versus 10 mg/kg
  Effect of raising the dose on EAE clinical symptoms: improved disease protection
EAE-induced C57BL/6 mice; 10 and 20 mg/kg injected on day 14 of EAE induction
  Mean clinical score (AUC) versus vehicle group and EAE group: significant reduction in the clinical score
[3]
  Reduction of MMP9, IFNβ versus IFNβ analog peptide: reduction of these inflammation mediators was more in IFNβ-treated mice
[3]; [4]
  MMP9 gene expression fold change in the brain tissue compared to the vehicle group: significant decrease
